The record followed here is patent US7468366B2, “Cytotoxic agents” (Rutgers, The State University of New Jersey, priority 2001, dated 2008).

Usually melting point stands for the temperature of the solid-liquid transition.

`CCCCn1c(=O)c2cc(OC)c(OC)cc2c2nnc3cc4c(cc3c21)OCO4` [Example 10, 2,3-Dimethoxy-8,9-methylenedioxy-11-(n-butyl)-11H-5,6,11-triazachrysen-12-one] gave a melting point of 299 °C.

On to `CCCCn1c(=O)c2cc(OC)c(OC)cc2c2cnc3cc4c(cc3c21)OCO4` [Example 11, 8,9-Dimethoxy-2,3-methylenedioxy-5-(butyl)-5H-dibenzo[c,h]1,6-naphthyridin-6-one], for which the melting point is 224 °C (dec.).

For `COc1cc2c(cc1OC)-c1cnc3cc4c(cc3c1OC2)OCO4` [Example 12, 8,9-Dimethoxy-2,3-methylenedioxy-6H-5-oxa-12-aza-chrysene], the melting point is 239 to 242 °C (dec.).
